This assay deals with SHP2 (Homo sapiens (Human), UniProt Q06124). The assay is described as follows: SHP2 Biochemical Assay (DiFMUP conversion, pIRS1 activating peptide).
Setting [1] is: DiFMUP substrate, 0.25 μM pIRS1 peptide, 30 min pre-incubation, average where more than one data point, read-out: SHP2 (IC50).

Where a name gives a salt, the structure may show the parent alone. Read-outs that look alike come from different tables or passages of the source.

What is called IC50 is the concentration at which inhibition is half-maximal.

`COc1cnc2ccc(-c3c[nH]c4nc(N5[C@H]6CC[C@@H]5[C@@H](F)[C@@H](N)C6)cnc34)c(Cl)c2n1` [Example 106, (1R,2S,3S,5S)-8-[7-(5-chloro-3-methoxyquinoxalin-6-yl)-5H-pyrrolo[2,3-b]pyrazin-3-yl]-2-fluoro-8-azabicyclo[3.2.1]octan-3-amine, hydrochloride] displayed an IC50 of 22 nM.

`CNC(=O)Cn1cc2c(Cl)c(-c3c[nH]c4nc(N5[C@@H]6CC[C@H]5C[C@@H](N)C6)cnc34)ccc2n1` [Example 57, 2-(5-{3-[endo-3-amino-8-azabicyclo[3.2.1]octan-8-yl]-5H-pyrrolo[2,3-b]pyrazin-7-yl}-4-chloro-2H-indazol-2-yl)-N-methylacetamide]: the IC50 under setting [1] was 23 nM.

For the compound “2-(5-{3-[endo-3-amino-8-azabicyclo[3.2.1]octan-8-yl]-5H-pyrrolo[2,3-b]pyrazin-7-yl}-3,4-dichloro-2H-indazol-2-yl)ethan-1-ol [Example 36]”, the IC50 under setting [1] stood at 6 nM.

The compound `Cc1nc2ccc(-c3n[nH]c4nc(N5[C@H]6CC[C@@H]5[C@@H](F)[C@@H](N)C6)c(CO)nc34)c(Cl)c2s1` [Example 98, {6-[(1R,2S,3S,5S)-3-amino-2-fluoro-8-azabicyclo[3.2.1]octan-8-yl]-3-(7-chloro-2-methyl-1,3-benzothiazol-6-yl)-1H-pyrazolo[3,4-b]pyrazin-5-yl}methanol] came in with an IC50 of 4 nM.

Turning to `Cc1nc2c(-c3ccc4nn(C)cc4c3Cl)c[nH]c2nc1N1CCC(C)(CN)CC1` [Example 11, 1-{1-[7-(4-chloro-2-methyl-2H-indazol-5-yl)-2-methyl-5H-pyrrolo[2,3-b]pyrazin-3-yl]-4-methylpiperidin-4-yl]methanamine, dihydrochloride salt], the IC50 under setting [1] is 43 nM.

As for `CCn1nc2ccc(-c3n[nH]c4nc(N5[C@H]6CC[C@@H]5[C@@H](F)[C@@H](N)C6)c(CO)nc34)c(Cl)c2c1C#N` [Example 126, 5-{6-[(1R,2S,3S,5S)-3-amino-2-fluoro-8-azabicyclo[3.2.1]octan-8-yl]-5-(hydroxymethyl)-1H-pyrazolo[3,4-b]pyrazin-3-yl}-4-chloro-2-ethyl-2H-indazole-3-carbonitrile], under setting [1], the IC50 was 9.7 nM.

In the case of `Cn1cc2c(Cl)c(-c3c[nH]c4nc(N5CC[C@@H](N)[C@H](F)C5)cnc34)ccc2n1` [Example 29, (3R,4R)-1-[7-(4-chloro-2-methyl-2H-indazol-5-yl)-5H-pyrrolo[2,3-b]pyrazin-3-yl]-3-fluoropiperidin-4-amine, hydrochloride salt], the IC50 under setting [1] was determined as 41 nM.

The compound `Cn1cc2c(Cl)c(-c3c[nH]c4nc(N5[C@@H]6CC[C@H]5[C@H](F)[C@H](N)C6)cnc34)ccc2n1` (racemic) [Example 12, rac-(1S,2R,3R,5R)-8-[7-(4-chloro-2-methyl-2H-indazol-5-yl)-5H-pyrrolo[2,3-b]pyrazin-3-yl]-2-fluoro-8-azabicyclo[3.2.1]octan-3-amine] registered an IC50 of 15 nM.

For the compound `CC(C)(C)NC(=O)Cn1cc2c(Cl)c(-c3c[nH]c4nc(N5[C@@H]6CC[C@H]5C[C@@H](N)C6)cnc34)ccc2n1` [Example 60, 2-(5-{3-[endo-3-amino-8-azabicyclo[3.2.1]octan-8-yl]-5H-pyrrolo[2,3-b]pyrazin-7-yl}-4-chloro-2H-indazol-2-yl)-N-tert-butylacetamide], under setting [1], the IC50 was found to be 12 nM.

In the case of `N[C@H]1C[C@H]2CC[C@@H](C1)N2c1cnc2c(-c3ccc4[nH]nc(Cl)c4c3Cl)c[nH]c2n1` [Example 54, endo-8-[7-(3,4-dichloro-1H-indazol-5-yl)-5H-pyrrolo[2,3-b]pyrazin-3-yl]-8-azabicyclo[3.2.1]octan-3-amine], the IC50 under setting [1] came out at 10 nM.

Compound `COc1cnc2ccc(-c3n[nH]c4nc(N5[C@@H]6CC[C@H]5[C@@H](F)[C@@H](N)C6)c(C)nc34)c(Cl)c2n1` [Example 121, (1S,2S,3S,5R)-8-[3-(5-chloro-3-methoxyquinoxalin-6-yl)-5-methyl-1H-pyrazolo[3,4-b]pyrazin-6-yl]-2-fluoro-8-azabicyclo[3.2.1]octan-3-amine] returned an IC50 of 14 nM.

Consider `Cc1nc2c(-c3ccc4nn(C)cc4c3Cl)c[nH]c2nc1N1[C@@H]2CC[C@H]1C[C@@H](N)C2` [Example 17, endo-8-[7-(4-chloro-2-methyl-2H-indazol-5-yl)-2-methyl-5H-pyrrolo[2,3-b]pyrazin-3-yl]-8-azabicyclo[3.2.1]octan-3-amine], for which the IC50 under setting [1] was determined as 20 nM.

For the compound `Cn1nc2ccc(-c3n[nH]c4nc(N5[C@H]6CC[C@@H]5[C@@H](F)[C@@H](N)C6)c(CO)nc34)c(Cl)c2c1C#N` [Example 129, 5-{6-[(1R,2S,3S,5S)-3-amino-2-fluoro-8-azabicyclo[3.2.1]octan-8-yl]-5-(hydroxymethyl)-1H-pyrazolo[3,4-b]pyrazin-3-yl}-4-chloro-2-methyl-2H-indazole-3-carbonitrile], the IC50 under setting [1] came out at 5 nM.

In the case of `COc1cnc2ccc(-c3n[nH]c4nc(N5[C@H]6CC[C@@H]5[C@@H](F)[C@@H](N)C6)c(C)nc34)c(Cl)c2n1` [Example 95, (1R,2S,3S,5S)-8-[3-(5-chloro-3-methoxyquinoxalin-6-yl)-5-methyl-1H-pyrazolo[3,4-b]pyrazin-6-yl]-2-fluoro-8-azabicyclo[3.2.1]octan-3-amine], under setting [1], the IC50 was 3 nM.

Take `Cc1nc2c(-c3ccc4nn(C(C)C)c(C#N)c4c3Cl)n[nH]c2nc1N1[C@H]2CC[C@@H]1[C@@H](F)[C@@H](N)C2` [Example 145, 5-{6-[(1R,2S,3S,5S)-3-amino-2-fluoro-8-azabicyclo[3.2.1]octan-8-yl]-5-methyl-1H-pyrazolo[3,4-b]pyrazin-3-yl}-4-chloro-2-(propan-2-yl)-2H-indazole-3-carbonitrile, hydrochloride]: under setting [1], the IC50 worked out at 36 nM.

With `CN(C)c1cnc2ccc(-c3n[nH]c4nc(N5[C@@H]6CC[C@H]5C[C@@H](N)C6)c(CO)nc34)c(Cl)c2n1` [Example 133, {6-[endo-3-amino-8-azabicyclo[3.2.1]octan-8-yl]-3-[5-chloro-3-(dimethylamino)quinoxalin-6-yl]-1H-pyrazolo[3,4-b]pyrazin-5-yl}methanol], the IC50 under setting [1] came to 6 nM.

In the case of `Cn1cnc2ccc(-c3c[nH]c4nc(N5CC[C@H](N)[C@H](F)C5)cnc34)c(Cl)c21` [Example 74, (3R,4S)-1-[7-(7-chloro-1-methyl-1H-1,3-benzodiazol-6-yl)-5H-pyrrolo[2,3-b]pyrazin-3-yl]-3-fluoropiperidin-4-amine], the IC50 under setting [1] amounted to 89 nM.

`Cn1nc2ccc(-c3c[nH]c4nc(N5[C@@H]6CC[C@H]5C[C@@H](N)C6)cnc34)c(Cl)c2c1CC#N` [Example 61, 2-(5-{3-[endo-3-amino-8-azabicyclo[3.2.1]octan-8-yl]-5H-pyrrolo[2,3-b]pyrazin-7-yl}-4-chloro-2-methyl-2H-indazol-3-yl)acetonitrile]: the IC50 under setting [1] was 130 nM.

As for `Cc1nc2c(-c3ccc4ncc(N(C)C)nc4c3Cl)n[nH]c2nc1N1C2CCC1CNC2` [Example 137, 8-Chloro-7-(6-{3,8-diazabicyclo[3.2.1]octan-8-yl}-5-methyl-1H-pyrazolo[3,4-b]pyrazin-3-yl)-N,N-dimethylquinoxalin-2-amine], the IC50 under setting [1] was determined as 21 nM.

With `Cn1cc2c(Cl)c(-c3c[nH]c4nc(N5[C@@H]6CC[C@H]5C[C@@H](N)C6)cnc34)ccc2n1` [Example 3, endo-8-[7-(4-chloro-2-methyl-2H-indazol-5-yl)-5H-pyrrolo[2,3-b]pyrazin-3-yl]-8-azabicyclo[3.2.1]octan-3-amine], the IC50 under setting [1] amounted to 10 nM.

The values above are taken from US11466016B2, “Pharmaceutical compounds” (priority 2018, dated 2022).
